# Test results taken from patent US20110269758A1, “NAPHTHYRIDINONES AS PROTEIN KINASE INHIBITORS” (MERCK PATENT GMBH, priority 2008, published 2011).
# pIC50: −log10 of the molar value. Like-named read-outs stand apart in the source and are kept apart here.
# Biological target: T1, Aurora Kinase A (Homo sapiens, UniProt O14965)
# T1 construct: full length Aurora A (1-403 amino acids); purchased Carna Biosciences 05-101
# T1 sequence (O14965 1-403): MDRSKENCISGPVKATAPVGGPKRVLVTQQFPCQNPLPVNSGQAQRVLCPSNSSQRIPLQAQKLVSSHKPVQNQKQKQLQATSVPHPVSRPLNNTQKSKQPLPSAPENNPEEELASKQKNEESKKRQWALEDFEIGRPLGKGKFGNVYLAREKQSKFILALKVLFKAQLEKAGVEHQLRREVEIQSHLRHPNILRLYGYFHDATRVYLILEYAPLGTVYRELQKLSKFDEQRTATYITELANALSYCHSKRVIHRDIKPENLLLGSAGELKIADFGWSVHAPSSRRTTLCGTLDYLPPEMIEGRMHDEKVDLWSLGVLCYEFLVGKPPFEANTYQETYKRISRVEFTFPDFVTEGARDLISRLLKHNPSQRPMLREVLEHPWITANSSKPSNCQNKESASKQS
# Assay: Biochemical enzyme assay for Aurora A activity (Caliper LC3000 / Desktop Profiler mobility shift)
# Protocol: The Aurora assays described here were performed on two Caliper Life Sciences systems, the LC3000 and the Desktop Profiler. These provide data on enzyme activity via measurement of the relative amounts of phosphorylated or unphosphorylated fluorescently labelled substrate peptide at the end of an enzymatic reaction. These different states of peptide are resolved by applying a potential difference across the sample. The presence of a charged phosphate group on the product (as opposed to the substrate) causes a different peptide mobility between the two peptides. This is visualized by excitation of a fluorescent label on the substrate and product peptides and represented as peaks within the analysis software.
# In order to measure inhibitor activity of Aurora A inhibitors in the Caliper Life Sciences LC3000, a TTP Mosquito liquid handling instrument was used to place 0.25 μl of an appropriate concentration of inhibitor in 100% DMSO (for a dose response curve calculation) into each well of a 384-well plate.
# The reaction was incubated for 90 min at 25° C., and then stopped by the addition of 70 μl of Stop buffer (100 mM HEPES pH 7.5, 0.015% Brij-35, 10 mM EDTA (Sigma, E7889)).
# The plate was read on a Caliper LC 3000 in an Off-Chip mobility shift assay format, using the following parameters for a 12-sipper chip: screening pressure −1.8 psi, upstream voltage −2700, downstream voltage −1000. These conditions cause unphosphorylated substrate and phosphorylated product peptide to resolve as separate peaks allowing direct measurement of percentage of conversion of substrate to product.
# The Desktop Profiler utilizes the same prinicipal as the LC 3000 for calculating percentage conversion of a substrate to product. Caliper Life Sciences provided proprietary flash frozen pre-made 384 well plates containing selected kinases. Each column in the 384 well plate contained a particular selected kinase. A second plate, the ‘substrate plate’ contained a mix of fluorescently labeled peptide substrate and ATP. These were arranged in columns so that transfer for substrate plate to enzyme plate provided the correct enzyme with the correct substrate/ATP concentration.
# Compounds were added to a thawed enzyme plate in the desired format, in single concentrations. Reactions were initiated by transfer of the substrate/ATP mix from the substrate plate. The enzyme plate was incubated for 90 mins at 25° C. The reaction was stopped by addition of 70 μl of Stop Buffer (100 mM HEPES pH 7.5, 0.015% Brij-35, 10 mM EDTA (Sigma, E7889)).
# Plates were read in a manner identical to that of the LC3000, and the ratio between substrate and product peaks provided the activity of the enzyme in that well.
# [1] = GST-Aurora A, 15 μM ATP, 90 min at 25° C., LC3000 or Desktop Profiler, read-out: Aurora Kinase A IC50
SMILES,pIC50 [1],pIC50
"Nc1ccc(NC(=O)c2ccc(F)c(F)c2)cc1 [Compound 10, N-(4-Aminophenyl)-3,4-difluoro-benzamide]",6.22 to 6.52,
"COc1ccccc1C(=O)Nc1ccc(N)cc1 [Compound 16, N-(4-Aminophenyl)-2-methoxy-benzamide]",,6.52 to 9.00
"Cc1ccccc1C(=O)Nc1ccc(N)cc1 [Compound 22, N-(4-Aminophenyl)-2-methyl-benzamide]",6.00 to 6.22,
"Cc1cccc(C(=O)Nc2ccc(N)cc2)c1 [Compound 23, N-(4-Aminophenyl)-3-methyl-benzamide]",< 6.00,
"Nc1ccc(NC(=O)c2cccc3ccccc23)cc1 [Compound 24, Naphthalene-1-carboxylic acid (4-aminophenyl)-amide]",< 6.00,
"Nc1ccc(NC(=O)c2c(Cl)cccc2Cl)cc1 [Compound 25, N-(4-Aminophenyl)-2,6-dichloro-benzamide]",6.52 to 9.00,
"Nc1ccc(NC(=O)c2ccc(Cl)c(Cl)c2)cc1 [Compound 26, N-(4-Aminophenyl)-3,4-dichloro-benzamide]",6.52 to 9.00,
"Nc1ccc(NC(=O)c2ccc(Cl)cc2Cl)cc1 [Compound 27, N-(4-Aminophenyl)-2,4-dichloro-benzamide]",6.52 to 9.00,
"CC(C)(C)C(=O)Nc1cc(Cl)ccn1 [Compound 28, N-(4-chloropyridin-2-yl)-2,2-dimethylpropanamide]",6.52 to 9.00,
"CC(C)(C)C(=O)Nc1nccc(Cl)c1C=O [Compound 29, N-(4-chloro-3-formylpyridin-2-yl)-2,2-dimethylpropanamide]",6.22 to 6.52,
"CC(C)(C)OC(=O)CC(O)c1c(Cl)ccnc1NC(=O)C(C)(C)C (stereo not drawn) [Compound 30, Tert-butyl 3-{4-chloro-2-[(2,2-dimethylpropanoyl)amino]pyridin-3-yl}-3-hydroxypropanoate]",6.52 to 9.00,
"O=c1ccc2c(Cl)ccnc2[nH]1 [Compound 31, 5-Chloro-1,8-naphthyridi-2(1H)-one]",6.52 to 9.00,

# Second part, the compound after the results:
pIC50 [1],pIC50,SMILES
6.52 to 9.00,,"Nc1ccc(NC(=O)c2cccc(C(F)(F)F)c2F)cc1 [Compound 7, N-(4-Aminophenyl)-2-fluoro-3-trifluoromethyl-benzamide]"
6.52 to 9.00,,"Nc1ccc(NC(=O)c2ccc(F)cc2C(F)(F)F)cc1 [Compound 8, N-(4-Aminophenyl)-4-fluoro-2-trifluoromethyl-benzamide]"
6.52 to 9.00,,"Nc1ccc(NC(=O)c2cc(F)cc(F)c2)cc1 [Compound 11, N-(4-Aminophenyl)-3,5-difluoro-benzamide]"
6.52 to 9.00,,"Nc1ccc(NC(=O)c2ccc(F)cc2F)cc1 [Compound 12, N-(4-Aminophenyl)-2,4-difluoro-benzamide]"
6.52 to 9.00,,"Nc1ccc(NC(=O)C2CCCCC2)cc1 [Compound 13, Cyclohexanecarboxylic acid (4-aminophenyl)-amide]"
6.52 to 9.00,,"Nc1ccc(NC(=O)c2cc(C(F)(F)F)cc(C(F)(F)F)c2)cc1 [Compound 14, N-(4-Aminophenyl)-3,5-bis-trifluoromethyl-benzamide]"
6.52 to 9.00,,"Nc1ccc(NC(=O)c2ccc3ccccc3c2)cc1 [Compound 15, Naphthalene-2-carboxylic acid (4-aminophenyl)-amide]"
6.52 to 9.00,,"Cc1ccc(C(=O)Nc2ccc(N)cc2)cc1 [Compound 17, N-(4-Aminophenyl)-4-methyl-benzamide]"
6.52 to 9.00,,"Nc1ccc(NC(=O)c2ccc(C(F)(F)F)cc2F)cc1 [Compound 18, N-(4-Aminophenyl)-2-fluoro-4-trifluoromethyl-benzamide]"
6.52 to 9.00,,"Nc1ccc(NC(=O)c2cc(F)cc(C(F)(F)F)c2)cc1 [Compound 19, N-(4-Aminophenyl)-3-fluoro-5-trifluoromethyl-benzamide]"
6.52 to 9.00,,"Nc1ccc(NC(=O)c2ccc(Cl)cc2)cc1 [Compound 20, N-(4-Aminophenyl)-4-chloro-benzamide]"
6.52 to 9.00,,"Nc1ccc(NC(=O)c2ccc(OC(F)(F)F)cc2)cc1 [Compound 21, N-(4-Aminophenyl)-4-trifluoromethoxy-benzamide]"
